# From PMC11130262, “Ebselen analogues delay disease onset and its course in fALS by on-target SOD-1 engagement” (Scientific Reports, 2024)
# Like-named read-outs stand apart in the source and are kept apart here.
# Assays:
# [1] = test system: H4 cells expressing A4V SOD1; test: ATP bioluminescent (CellTiter-Glo) cell viability assay, H4 cells expressing A4V SOD1; assay type: cell-based, human; conditions: for cell survival: 10 and 25 μM, 24 h, individual drugs
# Protocol: (§1) Human H4 neuroglioma cells (HTB-148, ATCC) and mouse Neuro2a neuroblastoma cells (CCL-131, ATCC) were cultured in Dulbecco’s modified Eagle’s medium (DMEM) (Gibco) supplemented with 10%v/v Foetal Bovine Serum (FBS) at 37 °C under humidified atmosphere with 5% CO2. Transfection of the Venus-BiFC SOD1 plasmids to H4 cells was carried out using Turbofect™ transfection agent (#R0533, Thermo Fisher Scientific) following protocols from the manufacture. Briefly, 1.5 × 10^5 H4 cells suspended in 1 mL medium were seeded on a well of 4 compartment-glass bottom dish (Cellview™, Greiner Bio-one) and grown at 37 °C for 24 h. 0.25 µg Venus-BiFC plasmids of wild-type or A4V SOD1 homodimer comprised of equimolar concentrations of VN-SOD1 and SOD1-VC were mixed with 1 µL Turbofect in 0.1 mL FBS-free DMEM and incubated at room temperature for 15 min before adding to seeded H4 cells. […] To determine cell viability, 2.5 × 10^4 cells were seeded in 0.2 mL media in a 96-well plate (Corning Costar, #10695951, Thermo Fisher Scientific). Cell viability was measured either using MTS assay (CellTiter 96, #G3580, Promega) on a plate-reader spectrometer (SpectraMax Plus 384, Molecular Devices) or using CellTiter-GloR 2.0 Assay (#G9241, Promega) following the manufacturer’s protocol. […] BMG POLARstar Omega microplate reader was used for luminescence measurement. To avoid the interference of the antioxidant compounds (ebselen and its analogues) with the luciferase activity in the presence of oxygen, the drugs containing media was replaced with a fresh medium prior to the addition of the reagent.
# [2] = test system: H4 cells expressing G93A SOD1; test: ATP bioluminescent (CellTiter-Glo) cell viability assay, H4 cells expressing G93A SOD1; assay type: cell-based, human; conditions: for cell survival: 10 and 25 μM, 24 h, individual drugs; for concentration up to which high level of cells viability is seen: dose-response 2.5 to 100 μM
# [3] = target: T1, H46R SOD1 (Homo sapiens, UniProt P00441, H47R); test: Bimolecular fluorescence complementation (BiFC) assay of SOD1 aggregation, H46R; assay type: cell-based; conditions: 50 µM
# T1 construct: expressed in transfected cells; host or cells: human H4 neuroglioma cells (HTB-148, ATCC)
# [4] = target: T2, D90A SOD1 (Homo sapiens, UniProt P00441, D91A); test: Bimolecular fluorescence complementation (BiFC) assay of SOD1 aggregation, D90A; assay type: cell-based; conditions: for reduction of aggregates / aggregation propensity: D90A, 50 µM
# T2 construct: expressed in transfected cells; host or cells: human H4 neuroglioma cells (HTB-148, ATCC)
# [5] = test system: SOD1^G93A transgenic mice; set-up: method as in PMID 32862101; conditions: cited from earlier work
# [6] = target: A4V SOD1 (Homo sapiens, UniProt P00441, A5V)
# Protocol: as §1
# [7] = target: T3, G93A SOD1 (Homo sapiens, UniProt P00441, G94A); test: Bimolecular fluorescence complementation (BiFC) assay of SOD1 aggregation, G93A; assay type: cell-based
# T3 construct: expressed in transfected cells; host or cells: human H4 neuroglioma cells (HTB-148, ATCC)
# [8] = test system: SOD1^G93A transgenic mice; test: Survival and behavioral experiments of SOD1G93A transgenic mice, chronic oral administration; assay type: in vivo, mouse; conditions: for disease onset (mean ± SD): female SOD1G93A mice, 0.016% w/w in powder food (estimated dose 24 mg/kg) from 70 days of age, controls 104.4 ± 8.7 (MR6-8-2) and 106.4 ± 9.0 (MR6-26-2)
# Protocol: Transgenic mice expressing human SOD1^G93A with C57BL/6 background (B6.Cg‐Tg(SOD1*G93A)1Gur/J) (RRID: IMSR_JAX:004435) were prepared for in vivo experiments using our published protocol with determination of the times for disease onset and end-stage were previously[25],[61]. […] The diet was replenished three times per week, and the mice had free access to their assigned diet and deionized water. The body weight of the mice and clasping signs were measured every week. Disease onset was determined by the time when the mice reached maximum body weight. The clasping signs were scored as 0 (no sign), 1 (one hindlimb partially retracted), 2 (both hindlimb partially retracted), or 3 (hindlimbs were entirely retracted), as described elsewhere[62],[63]. Rotarod tests were performed every two weeks, as previously described[61],[62]. Briefly, the mice were placed on the rotating rods, which accelerated from 0 to 30 rpm for 5 min with 15 min interval between each trial. The longest latencies to fall from the rotating rods out of three trials were scored. All behavioral experiments were conducted under non-blinded conditions. The mice were housed in the specific pathogen-free (SPF) environment (with a 12 h light‐dark cycle at 23 ± 1 °C and 50 ± 5% humidity) and treated in compliance with the requirements of the Animal Care and Use Committee, Nagoya University. The experiments using genetically modified mice were approved by the Animal Care and Use Committee and the recombinant DNA experiment committee of Nagoya University. All methods used for transgenic mice experiments were in accordance with relevant guidelines and regulations and all methods are reported in accordance with ARRIVE guideline.
# [9] = test system: spinal cords of SOD1^G93A mice; assay type: in vivo, mouse
# Protocol: Immunoblotting and immunofluorescence analyses were performed as described previously. For the analysis of SOD1 oligomers with aberrant disulfide bonds (SOD1 S–S oligomers), sodium dodecyl sulfate–polyacrylamide gel electrophoresis was performed under non-reducing conditions. […] (Medimabs, Montreal, Quebec, Canada) was used at a 1:250 dilution. Other primary antibodies used for the study were anti-β-actin (1:5,000, #A5441, RRID: AB_476744, Sigma-Aldrich), anti-p62 (1:1,000 for immunoblotting, 1:500 for immunohistochemistry, #PM045, RRID: AB_2169714, Medical and Biological Laboratories (MBL), Nagoya, Japan), anti-polyubiquitin (1:1,000 for immunoblotting, 1:500 for immunohistochemistry, #D058‐3, RRID: AB_592937, MBL), and anti-choline acetyltransferase (ChAT) ((1:100 for immunohistochemistry, #AB144P, RRID:AB_2079751, EMD Millipore Corp., Billerica, MA, USA). Rabbit anti-human SOD1 antibody was raised in our laboratory against a recombinant human SOD1 peptide (aa 24–37) and purified with protein A[66].
# [10] = test system: Neuro2a cells with SOD1^G93A expression; test: Proteostasis immunoblotting in cultured Neuro2a cells expressing G93A SOD1; assay type: cell-based, mouse; conditions: 10 µM, 24 h; for poly-ubiquitinated proteins: Fig. 6J
# Protocol: Neuro2a cells were seeded on 6 well plate (#140685 Corning Costar) at 5.0 × 10^4/well, and transfected with human wild-type or G93A SOD1 expressing plasmid[25] using Lipofectamine 2000 (Thermo Fisher Scientific) according to the manufacturer’s instructions.
# [11] = Oral bioavailability and pharmacokinetic study in mice; assay type: in vivo, female CD1 mice
# Protocol: The analysis is based on free measurable amounts of free drug in the plasma and thus is likely to be an underestimation of active drug compound due to the extensive serum albumin binding seen with drugs in this class.
# F = (AUCINF-PO/mean AUCINF-IV)/(DosePO/DoseIV) × 100%, AUClast was alternatively used for F calculation when AUCINF was not available or beyond 120% of AUClast. The compound were formulated in 5%DMAC + 95% (20% HP-beta-CD in saline) at 0.2 mg/mL for IV dosing and CMC (0.5%), benzyl alcohol (0.5%), Tween 80 (0.4%) and NaCl (0.9%) at 3 mg/mL for PO dosing, respectively. PK parameters were estimated by non-compartmental model using WinNonlin 8.2.
# [12] = test system: mouse neuronal N2a cells expressing G93A SOD1; set-up: method as in PMID 32862101; conditions: N2a cells expressing G93A SOD1, shown again in Fig. 1B; cited from earlier work
# [13] = test system: H4 cells expressing wild-type SOD1; test: ATP bioluminescent (CellTiter-Glo) cell viability assay, H4 cells expressing wild-type SOD1; conditions: wild-type SOD1, dose-response 2.5 to 100 μM, Supplementary Fig. S1
# Protocol: as §1, with “To avoid the interference of the antioxidant compounds (ebselen and its analogues) with the luciferase activity in the presence of oxygen, the drugs containing media was replaced with a fresh medium prior to the addition of the reagent.” left out
# [14] = female, CD1, mouse, in vivo, iv, 1 mg/kg
# [15] = female, CD1, mouse, in vivo, po, 30 mg/kg
# A4V SOD1, sequence (P00441 whole entry A5V): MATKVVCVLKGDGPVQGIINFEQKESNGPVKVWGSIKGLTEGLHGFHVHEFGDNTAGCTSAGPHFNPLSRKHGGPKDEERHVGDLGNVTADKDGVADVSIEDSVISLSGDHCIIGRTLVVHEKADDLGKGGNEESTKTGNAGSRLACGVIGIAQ
# A4V SOD1, sequence (P00441 2-154 A5V limits assumed): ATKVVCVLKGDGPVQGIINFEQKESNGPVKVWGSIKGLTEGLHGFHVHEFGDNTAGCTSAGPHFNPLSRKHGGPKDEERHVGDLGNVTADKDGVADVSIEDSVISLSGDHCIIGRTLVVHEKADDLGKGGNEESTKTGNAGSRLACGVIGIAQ
# T1 sequence (P00441 whole entry H47R): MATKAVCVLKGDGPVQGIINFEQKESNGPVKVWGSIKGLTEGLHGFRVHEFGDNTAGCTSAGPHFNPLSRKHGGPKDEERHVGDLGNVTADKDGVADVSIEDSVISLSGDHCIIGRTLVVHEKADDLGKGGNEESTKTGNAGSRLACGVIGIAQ
# T1 sequence (P00441 2-154 H47R limits assumed): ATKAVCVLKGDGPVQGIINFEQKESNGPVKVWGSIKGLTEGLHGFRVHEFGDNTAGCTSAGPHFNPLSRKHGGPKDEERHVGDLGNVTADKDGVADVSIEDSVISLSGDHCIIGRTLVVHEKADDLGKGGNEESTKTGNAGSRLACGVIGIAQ
# T2 sequence (P00441 whole entry D91A): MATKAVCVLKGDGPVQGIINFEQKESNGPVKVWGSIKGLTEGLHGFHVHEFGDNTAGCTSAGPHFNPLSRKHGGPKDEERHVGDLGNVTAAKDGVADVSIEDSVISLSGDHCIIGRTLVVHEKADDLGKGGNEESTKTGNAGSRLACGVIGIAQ
# T2 sequence (P00441 2-154 D91A limits assumed): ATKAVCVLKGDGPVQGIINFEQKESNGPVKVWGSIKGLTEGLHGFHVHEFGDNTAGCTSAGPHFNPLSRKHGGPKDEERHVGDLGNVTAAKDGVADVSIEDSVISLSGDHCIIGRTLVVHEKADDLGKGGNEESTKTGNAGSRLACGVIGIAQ
# T3 sequence (P00441 whole entry G94A): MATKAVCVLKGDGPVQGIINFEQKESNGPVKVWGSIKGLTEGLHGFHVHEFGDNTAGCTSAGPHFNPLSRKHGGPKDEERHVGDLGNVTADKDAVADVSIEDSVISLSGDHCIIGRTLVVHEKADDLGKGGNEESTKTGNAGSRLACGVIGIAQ
# T3 sequence (P00441 2-154 G94A limits assumed): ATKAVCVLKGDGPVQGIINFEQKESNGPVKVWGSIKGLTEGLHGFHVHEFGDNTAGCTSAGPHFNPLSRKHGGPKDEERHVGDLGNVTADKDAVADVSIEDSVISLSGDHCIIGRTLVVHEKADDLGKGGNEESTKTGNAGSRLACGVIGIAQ
smiles,measurement,setting,value
"O=c1c2ccccc2[se]n1-c1ccccc1 [ebselen, 2-phenyl-1,2-benzisoselenazol-3(2H)-one]",cell survival,[1],increased the cell survival
same,concentration up to which high level of cells viability is seen,[1]; dose-response 2.5 to 100 μM,up to 25 µM
same,cell survival,[2],increased the cell survival
same,concentration up to which high level of cells viability is seen,[2],up to 25 µM
same,reduction of aggregates / aggregation propensity,[3],least effective
same,reduction of aggregates / aggregation propensity,[4],least effective
same,neuroprotection in SOD1G93A mice by delaying disease onset,[5],partial neuroprotection
COc1ccc(Cn2[se]c3ccccc3c2=O)cn1 [MR6-26-2],cell survival,[1],increased the cell survival
same,concentration up to which high level of cells viability is seen,[1]; dose-response 2.5 to 100 μM,up to 25 µM
same,concentration reviving the cells to maximum level,"[1]; dose-response 2.5 to 100 μM, Supplementary Fig. S1",12.5 µM
same,cell survival,[2],increased the cell survival
same,concentration up to which high level of cells viability is seen,[2],up to 25 µM
same,cells displaying more than 5 inclusions per cell,"[6]; A4V SOD1, 50 µM, 24 h, 75% in untreated cells",29%
same,reduction of aggregates / aggregation propensity,"[6]; A4V, 50 µM",most effective in reducing the aggregates
same,drug concentration found to reduce the aggregates effectively,"[6]; A4V, doses 25, 50 and 100 µM, Fig. 3A",50 µM
same,cells with more than 5 inclusions per cell,"[7]; G93A SOD1, 50 µM, 24 h",no cells were detected
same,reduction of aggregates / aggregation propensity,"[7]; G93A, 50 µM",most effective in reducing the aggregates
same,reduction of aggregates / aggregation propensity,[3],most effective in reducing the aggregates
same,cells with more than 5 inclusions per cell,"[4]; D90A SOD1, 50 µM, 24 h",no cells were detected
same,reduction of aggregates / aggregation propensity,[4],most effective in reducing the aggregates
same,clasping scores,"[8]; SOD1G93A mice, Fig. 5C",improvement
same,survival time,"[8]; SOD1G93A mice, chronic oral",did not show a significant extension
same,slowing of disease onset,"[8]; SOD1G93A mice, oral",approximately 15 days
same,body weights,[8]; Supplementary Fig. S4,unaffected
same,rotarod performance,[8]; Supplementary Fig. S4,unaffected
same,disease onset (mean ± SD),[8],121.1 ± 7.2 days
same,p62- and poly-ubiquitin-doubly positive inclusions in motor neurons,[9]; 120-days-old SOD1G93A lumbar spinal cord,substantially reduced
same,SOD1 oligomers with aberrant disulfide bonds in spinal cords,"[9]; SOD1G93A mice, 120 days old, non-reducing SDS-PAGE",sharply decreased
same,misfolded SOD1 (C4F6 antibody) in lumbar spinal cord,[9]; early symptomatic SOD1G93A mice,reduced the accumulation of misfolded SOD1
same,motor neuron degeneration (ChAT-positive motor neurons),"[9]; early symptomatic SOD1G93A mice, Fig. 5J",without affecting the motor neuron degeneration
same,level of poly-ubiquitinated proteins in spinal cords,"[9]; immunoblotting, insoluble fractions, 120 days old",decreased
same,insoluble SOD1 proteins in spinal cords,"[9]; mouse, in vivo",sharply decreased
same,poly-ubiquitinated proteins,[10],reduced
same,AUC(0-inf),[11]; [14],203 ng·h/mL
same,AUC(0-t),[11]; [14],197 ng·h/mL
same,MRT inf,[11]; [14],0.267 h
same,Vd,[11]; [14],1.37 L/kg
same,clearance,[11]; [14],85.7 mL/min/kg
same,AUC(0-inf),[11]; [15],1790 ng·h/mL
same,AUC(0-t),[11]; [15],1730 ng·h/mL
same,CL,[11]; [15],4.17 mL/min/kg
same,MRTINF,[11]; [15],29.5 h
same,bioavailability,[11]; [15],29%
same,half-life,[11]; [15],1.5 h
same,half-life,"[11]; female, CD1, mouse, plasma, IV dose at 1 mg/kg, mean, read-out: T1/2 (converted)",0.347 h
same,half-life,"[11]; female, CD1, mouse, plasma, oral dose of 30 mg/kg, mean, read-out: T1/2 (converted)",1.35 h
same,clearance,"[11]; mouse, in vivo",fast clearance
same,"dosage restoring wild-type level viability, lower than edaravone",[12],100 -fold
CC1=NN(c2ccccc2)C(=O)C1 [edaravone],cell survival,[1],increased the cell survival
same,cell survival,[2],increased the cell survival
same,insoluble SOD1 species,[10]; Fig. 6I,tendency to reduce insoluble SOD1
same,poly-ubiquitinated proteins,[10],little effect
same,insoluble p62,[10]; Fig. 6K,little effect
Nc1nc2ccc(OC(F)(F)F)cc2s1 [riluzole],effect on proteostasis,[10],no effect on proteostasis
O=c1c2ccccc2[se]n1Cc1cccnc1 [MR6-8-2],concentrations giving a sharp fall of viable cells (toxicity),[13],above 25 µM
same,cell survival,[1],increased the cell survival
same,cell survival,[2],increased the cell survival
same,reduction of aggregates / aggregation propensity,[3],least effective
same,reduction of aggregates / aggregation propensity,[4],least effective
same,disease onset (mean ± SD),[8],115.5 ± 9.2 days
same,"dosage restoring wild-type level viability, lower than edaravone",[12],100 -fold
